Test results from patent US20080260661A1, “Aminobutadiene-Based Uv Screens” (Fuji Photo Film B.V., priority 2004, published 2008).

Columns and labels:
[1] = Absorption maximum of the structures; assay type: physicochemical; details: measured in methanol, or if not soluble in methanol, in ethanol
Procedure: Absorption maxima of the structures in Tables 1 to 3 are measured in methanol, or if not soluble in methanol, in ethanol.

[2] = Appearance of formulation after application to the transparent substrate; assay type: physicochemical

Compound `CCCCN(/C=C/C=C1C(=O)CC(C)(C)CC1=O)CCCC` [Structure 1.6r] has an Absorption maximum ([1]; Table 1) of 389 nm.
For `CCCCC(CC)COC(=O)C(=C/C=C/N(C)C)C(=O)OCC(CC)CCCC` (stereo not drawn) [Structure 1.3i], the Absorption maximum ([1]; Table 1) was 374 nm.
With `CCCCCCCCCCCCOC(=O)/C(C#N)=C/C=C1/OCC(C)(C)N1C` [Structure 3.5i] the Absorption maximum ([1]; Table 3) was 374 nm.
For `CCCCCCN(/C=C/C=C(C(C)=O)C(C)=O)CCCCCC` [Structure 1.13r], the Absorption maximum ([1]; Table 1) was 395 nm.
Compound `CCCCCCN(/C=C/C=C1C(=O)N(C)C(=O)N(C)C1=O)CCCCCC` [Structure 1.10r] has an Absorption maximum ([1]; Table 1) of 388 nm.
`CCCCCCN(/C=C/C=C(/C(=O)OCC)S(=O)(=O)c1ccccc1)CCCCCC` [Structure 1.1i] gave an Absorption maximum ([1]; Table 1) of 373 nm.
`CCCCCCCCCCN1/C(=C\C=C(\C(=O)OCCCCCC)S(=O)(=O)c2ccc(C)cc2)SCC1C` (stereo not drawn) [Structure 3.8r] showed an Absorption maximum ([1]; Table 3) of 392 nm.
Work on `CCCCCCN(/C=C/C=C(C#N)C#N)CCCCCC` [Structure 1.5i] yielded an Absorption maximum ([1]; Table 1) of 378 nm.
`CCCCCCCCCCN1/C(=C\C=C(\C(C)=O)S(=O)(=O)c2ccccc2)OCC1(C)C` [Structure 3.4i] showed an Absorption maximum ([1]; Table 3) of 373 nm.
Compound `CCCCCCN(/C=C/C=C(\C(C)=O)S(=O)(=O)c1ccccc1)CCCCCC` [Structure 1.8r] has an Absorption maximum ([1]; Table 1) of 385 nm.
In the case of `CCCCCCOC(=O)/C(=C/C=C1/OCC(C)(C)N1C)S(=O)(=O)c1ccccc1` [Structure 3.2i], the Absorption maximum ([1]; Table 3) is reported as 362 nm.
In the case of `Cc1ccc(S(=O)(=O)/C(C#N)=C\C=C2\OCC(C)(C)N2C)cc1` [Structure 3.1i], the Absorption maximum ([1]; Table 3) is reported as 361 nm.
Compound `CCCCCCCCCCCCN1/C(=C\C=C(C#N)C#N)OCC1(C)C` [Structure 3.3i] has an Absorption maximum ([1]; Table 3) of 372 nm.
`CCCCN(/C=C/C=C(\C(=O)OC)S(=O)(=O)c1ccc(C(C)(C)C)cc1)CCCC` [Structure 1.2i] gave an Absorption maximum ([1]; Table 1) of 373 nm.
Compound `CCCCCCN(/C=C/C=C(\C(=O)OCCOc1ccc(C(C)(C)CC)cc1C(C)(C)CC)S(=O)(=O)c1ccc(C)cc1)CCCCCC` [Structure 1.4i] has an Absorption maximum ([1]; Table 1) of 374 nm.
With `CCCCCCCCCCN1CCC/C1=C/C=C(/C(C)=O)S(=O)(=O)c1ccccc1` [Structure 3.7r] the Absorption maximum ([1]; Table 3) was 392 nm.
With `CCCCC(CC)COC(=O)C(=CC=CN1CCCCC1)C(C)=O` (stereo not drawn) [Structure 2.3r] the Absorption maximum ([1]; Table 2) was 395 nm.
In the case of `CCCCCCN(/C=C/C=C1C(=O)N(C)N(C)C1=O)CCCCCC` [Structure 1.9r], the Absorption maximum ([1]; Table 1) is reported as 387 nm.
For `CCCCN(/C=C/C=C(\C(C)=O)S(=O)(=O)c1ccc(C)cc1)CCCC` [Structure 1.7r], the Absorption maximum ([1]; Table 1) was 385 nm.
Work on `CC(=O)/C(=C\C=C\N1CCOCC1)S(=O)(=O)c1ccccc1` [Structure 2.2r] yielded an Absorption maximum ([1]; Table 2) of 383 nm.
With `CCCCCCCCCCOC(=O)/C(=C/C=C/N(C)C)C(C)=O` [Structure 1.12r] the “Appearance (colour) of formulation” value [2] was “had a colourless appearance after application to the transparent substrate, except for structure 1.12r” and the Absorption maximum ([1]; Table 1) was 394 nm.
`CCCCCCCCCCOC(=O)/C(=C\C=C\N1CCCCC1)S(=O)(=O)c1ccccc1` [Structure 2.1i] showed an Absorption maximum ([1]; Table 2) of 375 nm.
Compound `CCCCCCCCCCN1CCC/C1=C/C=C(/C(=O)OCC)S(=O)(=O)c1ccc(OC)cc1` [Structure 3.6i] has an Absorption maximum ([1]; Table 3) of 375 nm.
